Key:
bamyardgrass = experiment: Test B flood test barnyardgrass; type: in vivo, Echinochloa crus-galli
Method in brief: (§1)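 Flood test on plants grown to the 2-leaf stage; treated plants kept in greenhouse twelve to sixteen days, then visually rated against controls on a 0 (no effect) to 10 (complete control) scale.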

duck salad = experiment: Test B flood test duck salad; type: in vivo, Heteranthera limosa
Method in brief: as §1

rape = experiment: Test B pre/postemergence rape; type: in vivo, Brassica napus
Method in brief: (§2)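 Test chemicals in a non-phytotoxic solvent mixture with surfactant were sprayed preemergence onto planted seeds and postemergence onto plants 2 to 18 cm tall (1- to 4-leaf stage). After twelve to sixteen days in a greenhouse, injury was visually rated against untreated controls from 0 (no effect) to 10 (complete control).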

corn = experiment: Test B pre/postemergence corn; type: in vivo, Zea mays
Method in brief: as §2

wild oat = experiment: Test B pre/postemergence wild oat; type: in vivo, Avena fatua
Method in brief: as §2

sugar beet = experiment: Test B pre/postemergence sugar beet; type: in vivo, Beta vulgaris
Method in brief: as §2

velvetleaf = experiment: Test B pre/postemergence velvetleaf; type: in vivo, Abutilon theophrasti
Method in brief: as §2

surinam grass = experiment: Test B pre/postemergence surinam grass; type: in vivo, Brachiaria decumbens
Method in brief: as §2

crabgrass = experiment: Test B pre/postemergence crabgrass; type: in vivo, Digitaria sanguinalis
Method in brief: as §2

wheat = experiment: Test B pre/postemergence wheat; type: in vivo, Triticum aestivum
Method in brief: as §2

blackgrass = experiment: Test B pre/postemergence blackgrass; type: in vivo, Alopecurus myosuroides
Method in brief: as §2

giant foxtail = experiment: Test B pre/postemergence giant foxtail; type: in vivo, Setaria faberii
Method in brief: as §2

bedstraw = experiment: Test B pre/postemergence bedstraw; type: in vivo, Galium aparine
Method in brief: as §2

smallflower flatsedge = experiment: Test B flood test smallflower flatsedge; type: in vivo, Cyperus difformis
Method in brief: as §1

purple nutsedge = experiment: Test B pre/postemergence purple nutsedge; type: in vivo, Cyperus rotundus
Method in brief: as §2

rice = experiment: Test B flood test rice; type: in vivo, Oryza sativa
Method in brief: as §1

[1] = Rate 62 g/ha, headed Pre-emergence (flood test species), scale 0 to 10 (0 no effect, 10 complete control)
[2] = Rate 125 g/ha, Pre-emergence, flood test species, scale 0 to 10 where 0 is no effect and 10 is complete control
[3] = Rate 250 g/ha, Pre-emergence, flood-test species, scale 0 to 10, 0 is no effect, 10 is complete control
[4] = Rate 500 g/ha, Pre-emergence, flood test species, scale 0 to 10 (0 no effect, 10 complete control)
[5] = Preemergence, Rate 62 g/ha, scale of 0 to 10 where 0 is no effect and 10 is complete control
[6] = Preemergence, Rate 250 g/ha, scale of 0 to 10 where 0 is no effect and 10 is complete control
[7] = Preemergence, Rate 500 g/ha, scale of 0 to 10 where 0 is no effect and 10 is complete control
[8] = Rate 62 g/ha, Postemergence, scale 0 to 10 (0 no effect, 10 complete control)
[9] = Rate 125 g/ha, Postemergence, scale of 0 to 10 where 0 is no effect and 10 is complete control
[10] = Rate 250 g/ha, Postemergence, scale of 0 to 10 where 0 is no effect and 10 is complete control
[11] = Rate 500 g/ha, Postemergence, scale 0 to 10, 0 no effect, 10 complete control

CCc1cccc(CC)c1-n1c(=O)on(C(=O)N(c2ccc(F)cc2)C(C)C)c1=O [Compound 304]
Barnyardgrass plant response rating (bamyardgrass; [1]): 0 | Barnyardgrass plant response rating (bamyardgrass; [2]): 0 | Barnyardgrass plant response rating (bamyardgrass; [3]): 0 | Barnyardgrass plant response rating (bamyardgrass; [4]): 4 | Ducksalad plant response rating (duck salad; [1]): 0 | Ducksalad plant response rating (duck salad; [2]): 0 | Ducksalad plant response rating (duck salad; [3]): 0 | Ducksalad plant response rating (duck salad; [4]): 0 | Rape plant response rating (rape; [5]): 0 | Rape plant response rating (0 to 10 scale) (rape; Preemergence, Rate 125 g/ha): 0 | Rape plant response rating (rape; [6]): 0 | Rape plant response rating (rape; [7]): 0 | Rape plant response rating (rape; [8]): 0 | Rape plant response rating (rape; [9]): 0 | Plant response rating, Rape (rape; [10]): 0 | Corn plant response rating (corn; [5]): 0 | Corn plant response rating (0 to 10 scale) (corn; Preemergence, Rate 125 g/ha): 0 | Corn plant response rating (corn; [6]): 0 | Corn plant response rating (corn; [7]): 0 | Corn plant response rating (corn; [8]): 0 | Corn plant response rating (corn; [9]): 0 | Plant response rating, Corn (corn; [10]): 0 | Corn plant response rating (corn; [11]): 0 | Wild oats plant response rating (wild oat; [5]): 0 | Wild oats plant response rating (0 to 10 scale) (wild oat; Preemergence, Rate 125 g/ha): 0 | Wild oats plant response rating (wild oat; [6]): 0 | Wild oats plant response rating (wild oat; [7]): 0 | Wild oats plant response rating (wild oat; [8]): 0 | Wild oats plant response rating (wild oat; [9]): 0 | Plant response rating, Wild oats (wild oat; [10]): 0 | Sugarbeets plant response rating (sugar beet; [5]): 0 | Sugarbeets plant response rating (0 to 10 scale) (sugar beet; Preemergence, Rate 125 g/ha): 1 | Sugarbeets plant response rating (sugar beet; [6]): 6 | Sugarbeets plant response rating (sugar beet; [7]): 6 | Sugarbeets plant response rating (sugar beet; [8]): 0 | Sugarbeets plant response rating (sugar beet; [9]): 0 | Plant response rating, Sugarbeets (sugar beet; [10]): 0 | Velvetleaf plant response rating (velvetleaf; [5]): 0 | Velvetleaf plant response rating (0 to 10 scale) (velvetleaf; Preemergence, Rate 125 g/ha): 0 | Velvetleaf plant response rating (velvetleaf; [6]): 0 | Velvetleaf plant response rating (velvetleaf; [7]): 0 | Velvetleaf plant response rating (velvetleaf; [8]): 0 | Velvetleaf plant response rating (velvetleaf; [9]): 0 | Plant response rating, Velvetleaf (velvetleaf; [10]): 0 | B. signalgrass plant response rating (surinam grass; [5]): 0 | B. signalgrass plant response rating (0 to 10 scale, 0 is no effect, 10 is complete control) (surinam grass; Preemergence, Rate 125 g/ha): 0 | B. signalgrass plant response rating (surinam grass; [6]): 0 | B. signalgrass plant response rating (surinam grass; [7]): 0 | B. signalgrass plant response rating (surinam grass; [8]): 0 | B. signalgrass plant response rating (surinam grass; [9]): 0 | Plant response rating, B. signalgrass (surinam grass; [10]): 0 | B. signalgrass plant response rating (surinam grass; [11]): 0 | Crabgrass plant response rating (crabgrass; [5]): 3 | Crabgrass plant response rating (0 to 10 scale) (crabgrass; Preemergence, Rate 125 g/ha): 4 | Crabgrass plant response rating (crabgrass; [6]): 6 | Crabgrass plant response rating (crabgrass; [7]): 8 | Crabgrass plant response rating (crabgrass; [8]): 0 | Crabgrass plant response rating (crabgrass; [9]): 0 | Plant response rating, Crabgrass (crabgrass; [10]): 0 | Wheat plant response rating (wheat; [5]): 0 | Wheat plant response rating (0 to 10 scale) (wheat; Preemergence, Rate 125 g/ha): 0 | Wheat plant response rating (wheat; [6]): 0 | Wheat plant response rating (wheat; [7]): 0 | Wheat plant response rating (wheat; [8]): 0 | Wheat plant response rating (wheat; [9]): 0 | Plant response rating, Wheat (wheat; [10]): 0 | Blackgrass plant response rating (blackgrass; [5]): 0 | Blackgrass plant response rating (0 to 10 scale) (blackgrass; Preemergence, Rate 125 g/ha): 0 | Blackgrass plant response rating (blackgrass; [6]): 0 | Blackgrass plant response rating (blackgrass; [7]): 0 | Blackgrass plant response rating (blackgrass; [8]): 0 | Blackgrass plant response rating (blackgrass; [9]): 0 | Plant response rating, Blackgrass (blackgrass; [10]): 0 | Blackgrass plant response rating (blackgrass; [11]): 4 | Giant foxtail plant response rating (giant foxtail; [5]): 0 | Giant foxtail plant response rating (0 to 10 scale) (giant foxtail; Preemergence, Rate 125 g/ha): 4 | Giant foxtail plant response rating (giant foxtail; [6]): 6 | Giant foxtail plant response rating (giant foxtail; [7]): 6 | Giant foxtail plant response rating (giant foxtail; [8]): 0 | Giant foxtail plant response rating (giant foxtail; [9]): 0 | Plant response rating, Giant foxtail (giant foxtail; [10]): 0 | Bedstraw plant response rating (bedstraw; [5]): 0 | Bedstraw plant response rating (0 to 10 scale) (bedstraw; Preemergence, Rate 125 g/ha): 0 | Bedstraw plant response rating (bedstraw; [6]): 0 | Bedstraw plant response rating (bedstraw; [7]): 0 | Bedstraw plant response rating (bedstraw; [8]): 0 | Bedstraw plant response rating (bedstraw; [9]): 0 | S. Flatsedge plant response rating (smallflower flatsedge; [1]): 0 | S. Flatsedge plant response rating (smallflower flatsedge; [2]): 0 | S. Flatsedge plant response rating (smallflower flatsedge; [3]): 0 | S. Flatsedge plant response rating (smallflower flatsedge; [4]): 0 | Nutsedge plant response rating (purple nutsedge; [5]): 0 | Nutsedge plant response rating (0 to 10 scale) (purple nutsedge; Preemergence, Rate 125 g/ha): 0 | Nutsedge plant response rating (purple nutsedge; [6]): 0 | Nutsedge plant response rating (purple nutsedge; [7]): 0 | Nutsedge plant response rating (purple nutsedge; [8]): 0 | Nutsedge plant response rating (purple nutsedge; [9]): 0 | Plant response rating, Nutsedge (purple nutsedge; [10]): 0 | Rice plant response rating (rice; [1]): 0 | Rice plant response rating (rice; [2]): 0 | Rice plant response rating (rice; [3]): 0 | Rice plant response rating (rice; [4]): 0

From patent US6737383B1, “Herbicidal oxadiazolidines” (priority 1999, dated 2004)
